Laboratory results taken from patent US20120100990A1, “4 -AMINOPICOLINATES AND THEIR USE AS HERBICIDES” (SYNGENTA CROP PROTECTION LLC, priority 2009, published 2012).

Assays:
Type in all cases: in vivo
[1] = system: Alopecurus myosuroides (ALOMY); experiment: Post-emergence biological efficacy, glasshouse pot test; conditions: 312 h, 1,000 g/ha, evaluated after 13 days, 100=total damage, 0=no damage, read-out: Percentage damage caused to weed species, post-emergence, ALOMY
In short: (§1)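 Damage, rated 0 (none) to 100 (total) at 13 days after treatment, followed post-emergence spraying at 250 or 1000 g/ha in acetone/water with 0.5% Tween 20. Plants had been raised 8 days beforehand under glasshouse conditions of 24/16 °C day/night, 14 h light and 65% humidity.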

[2] = system: Ipomea hederaceae (IPOHE); experiment: as above; conditions: Ipomoea hederacea, 312 h, 1,000 g/ha, evaluated after 13 days, 100=total damage, 0=no damage, read-out: Percentage damage caused to weed species, post-emergence, IPOHE
In short: as §1

[3] = system: Echinochloa crus-galli (ECHCG); experiment: as above; conditions: 312 h, 1,000 g/ha, evaluated after 13 days, 100=total damage, 0=no damage, read-out: Percentage damage caused to weed species, post-emergence, ECHCG
In short: as §1

Solanum nigrum (SOLNI) [4] = experiment: as above; conditions: 312 h, 1,000 g/ha, evaluated after 13 days, 100=total damage, 0=no damage, read-out: Percentage damage caused to weed species, post-emergence, SOLNI
In short: as §1

Setaria faberi (SETFA) [5] = experiment: as above; conditions: 312 h, 1,000 g/ha, evaluated after 13 days, 100=total damage, 0=no damage, read-out: Percentage damage caused to weed species, post-emergence, SETFA
In short: as §1

[6] = system: Amaranthus retroflexus (AMARE); experiment: as above; conditions: 312 h, 1,000 g/ha, evaluated after 13 days, 100=total damage, 0=no damage, read-out: Percentage damage caused to weed species, post-emergence, AMARE
In short: as §1

[7] = system: Alopecurus myosuroides (ALOMY); experiment: Pre-emergence biological efficacy, glasshouse pot test; conditions: 312 h, 1,000 g/ha, evaluated after 13 days, 100=total damage, 0=no damage, read-out: Percentage damage caused to weed species, pre-emergence, ALOMY
In short: (§2)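 Plants treated pre-emergence received 1000 or 250 g/ha in an acetone/water (50:50) vehicle containing 0.5% Tween 20 and were kept in a glasshouse at 24/16 °C with 14 h light. Injury was rated on day 13, where 100 meant total damage.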

[8] = system: Ipomea hederaceae (IPOHE); experiment: as above; conditions: Ipomoea hederacea, 312 h, 1,000 g/ha, evaluated after 13 days, 100=total damage, 0=no damage, read-out: Percentage damage caused to weed species, pre-emergence, IPOHE
In short: as §2

[9] = system: Echinochloa crus-galli (ECHCG); experiment: as above; conditions: 312 h, 1,000 g/ha, evaluated after 13 days, 100=total damage, 0=no damage, read-out: Percentage damage caused to weed species, pre-emergence, ECHCG
In short: as §2

Solanum nigrum (SOLNI) [10] = experiment: as above; conditions: 312 h, 1,000 g/ha, evaluated after 13 days, 100=total damage, 0=no damage, read-out: Percentage damage caused to weed species, pre-emergence, SOLNI
In short: as §2

Setaria faberi (SETFA) [11] = experiment: as above; conditions: 312 h, 1,000 g/ha, evaluated after 13 days, 100=total damage, 0=no damage, read-out: Percentage damage caused to weed species, pre-emergence, SETFA
In short: as §2

[12] = system: Amaranthus retroflexus (AMARE); experiment: as above; conditions: 312 h, 1,000 g/ha, evaluated after 13 days, 100=total damage, 0=no damage, read-out: Percentage damage caused to weed species, pre-emergence, AMARE
In short: as §2

| Compound | pest or weed control at 1000 g/ha [1] [%] | pest or weed control at 1000 g/ha [2] [%] | pest or weed control at 1000 g/ha [3] [%] | pest or weed control at 1000 g/ha (Solanum nigrum (SOLNI) [4]) [%] | pest or weed control at 1000 g/ha (Setaria faberi (SETFA) [5]) [%] | pest or weed control at 1000 g/ha [6] [%] | pest or weed control at 1000 g/ha [7] [%] | pest or weed control at 1000 g/ha [8] [%] | pest or weed control at 1000 g/ha [9] [%] | pest or weed control at 1000 g/ha (Solanum nigrum (SOLNI) [10]) [%] | pest or weed control at 1000 g/ha (Setaria faberi (SETFA) [11]) [%] | pest or weed control at 1000 g/ha [12] [%] |
| --- | --- | --- | --- | --- | --- | --- | --- | --- | --- | --- | --- | --- |
| COC(=O)c1nc(Cl)cc(NCc2ccccc2Br)c1Cl [Compound 72-2, 4-[(2-Bromophenyl-methyl)-amino]-3,6-dichloro-pyridine-2-carboxylic acid methyl ester] | 20 | 70 | 10 | 100 | 70 | 100 | 30 | 80 | 10 | 100 | 30 | 90 |
| CCN1CCCC1CNc1cc(Cl)nc(C(=O)OC)c1Cl (stereo not drawn) [Compound 71-2, 3,6-Dichloro-4-[(N-ethyl-pyrrolidin-2-ylmethyl)-amino]-pyridine-2-carboxylic acid methyl ester] | 20 | 60 | 20 | 100 | 50 | 100 | 70 | 100 | 20 | 100 | 80 | 100 |
| COC(=O)c1nc(-c2ccc(Cl)c(OC)c2F)cc(NCc2ccco2)c1Cl [Compound 26-164, 3-chloro-6-(4-chloro-2-fluoro-3-methoxy-phenyl)-4-[(furan-2-ylmethyl)-amino]-pyridine-2-carboxylic acid methyl ester] | 70 | 90 | 70 | 100 | 90 | 100 | 50 | 100 | 90 | 100 | 90 | 100 |
| COC(=O)c1nc(Cl)c(Cl)c(NCc2ccccc2[N+](=O)[O-])c1C [Compound 15-43, 5,6-Dichloro-3-methyl-4-[(2-nitrophenyl-methyl)-amino]-pyridine-2-carboxylic acid methyl ester] | 40 | 70 | 10 | 100 | 40 | 100 | 0 | 50 | 0 | 70 | 0 | 90 |
| COC(=O)c1nc(-c2ccc(Cl)c(N(C)C)c2F)cc(NCc2ccco2)c1Cl [Compound 26-245, 3-Chloro-6-(4-chloro-3-dimethylamino-2-fluoro-phenyl)-4-[(furan-2-ylmethyl)-amino]-pyridine-2-carboxylic acid methyl ester] | 40 | 60 | 50 | 90 | 60 | 100 | 10 | 60 | 30 | 60 | 30 | 100 |
| COC(=O)c1nc(Cl)c(F)c(NCc2ccccc2[N+](=O)[O-])c1C [Compound 15-31, 6-Chloro-5-fluoro-3-methyl-4-[(2-nitrophenyl-methyl)-amino]-pyridine-2-carboxylic acid methyl ester] | 20 | 70 | 50 | 100 | 80 | 100 | 20 | 70 | 20 | 90 | 20 | 100 |
| COC(=O)c1nc(Cl)cc(NCc2ccccc2)c1Cl [Compound 2-2, 3,6-Dichloro-4-phenylmethyl-amino-pyridine-2-carboxylic acid methyl ester] | 50 | 70 | 60 | 100 | 80 | 100 | 60 | 90 | 30 | 100 | 80 | 100 |
| COC(=O)c1nc(-c2ccc(Cl)c(OC)c2F)cc(NCc2ccc(OC)cc2OC)c1Cl [Compound 22-164, 3-Chloro-6-(4-chloro-2-fluoro-3-methoxy-phenyl)-4-[(2,4-dimethoxyphenyl-methyl)-amino]-pyridine-2-carboxylic acid methyl ester] | 0 | 70 | 60 | 90 | 60 | 100 | 20 | 70 | 60 | 80 | 10 | 80 |
| C=Cc1c(NCc2cccs2)cc(Cl)nc1C(=O)OC [Compound 75-12, 6-Chloro-3-ethenyl-4-(thiophen-2-ylmethylamino)-pyridine-2-carboxylic acid methyl ester] | 50 | 50 | 70 | 100 | 80 | 100 | 80 | 80 | 60 | 100 | 70 | 100 |
| COC(=O)c1nc(Cl)cc(NCc2ccccn2)c1Cl [Compound 31-2, 3,6-Dichloro-4-(pyridin-2-ylmethylamino)-pyridine-2-carboxylic acid methyl ester] | 50 | 80 | 20 | 100 | 80 | 100 | 70 | 100 | 60 | 100 | 80 | 100 |
| C=Cc1c(NCc2ncccc2Cl)cc(Cl)nc1C(=O)OC [Compound 32-12, 6-Chloro-4-[(3-chloro-pyridin-2-ylmethyl)-amino]-3-ethenyl-pyridine-2-carboxylic acid methyl ester] | 50 | 50 | 40 | 90 | 60 | 100 | 70 | 70 | 50 | 100 | 80 | 100 |
